In patent publication EP4772514A1, “MACROCYCLIC COMPOUNDS, PREPARATION METHOD THEREFOR, AND USE THEREOF” (Genfleet Therapeutics (Shanghai) Inc., priority 2023, dated 2025) one finds IC50 data, which are given here for four compounds.

What all share (type): cell-based
For assay [1], the system named is p-ERK. The assay is described as follows: Cell p-ERK assay (HTRF, Advance ERK phospho-T202/Y204 kit) in NCI-H441 cells. The note with it: Homo sapiens, NCI-H441, 3 h, NCI-H441, human non-small cell lung cancer cell strain, KRAS G12V mutation; 3 h compound incubation. An outline of the steps:
(§1)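 AsPC-1 (KRAS G12D) or NCI-H441 (KRAS G12V) cells seeded overnight, then treated 3 h at 37 °C with compound (0.1% DMSO) in RPMI-1640/10% FBS. Lysates assayed for ERK phospho-T202/Y204 by HTRF; inhibition vs DMSO and blank wells, IC50 from four-parameter fit.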
In general terms: In TR-FRET formats the signal depends on donor and acceptor labels being close together.

Assay [2] concerns p-ERK. The assay is described as follows: Cell p-ERK assay (HTRF, Advance ERK phospho-T202/Y204 kit) in AsPC-1 cells. The settings on record: ASPC1; AsPC-1, human pancreatic cancer cell strain, KRAS G12D mutation; 3 h compound incubation. An outline of the steps:
as §1

The subject of a further assay is NCI-H441 cells. The assay is described as follows: 3D cell proliferation assay (CellTiter Glo-3D) in NCI-H441 cells. The note with it: Homo sapiens, NCI-H441, 120 h, NCI-H441, human lung cancer cell strain, KRAS G12V mutation; 3D culture, 2% FBS, 5 days; read-out: H441 AP IC50. An outline of the steps: (§2)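 After a 5-day exposure at 37 °C to 3.16-fold serial dilutions (final DMSO 0.1%) in 2% FBS RPMI-1640, ATP luminescence (CellTiter-Glo 3D) was read. Cells were AsPC-1 (KRAS G12D) or NCI-H441 (KRAS G12V), 800 per well; inhibition used DMSO and medium-only controls, with four-parameter curve fitting giving IC50.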
Background: ATP-based viability assays read luminescence as a measure of living cells.

The subject of a further assay is AsPC-1 cells. The assay is described as follows: 3D cell proliferation assay (CellTiter Glo-3D) in AsPC-1 cells. The settings on record: ASPC1, 120 h; AsPC-1, human pancreatic cancer cell strain, KRAS G12D mutation; 3D culture, 2% FBS, 5 days; read-out: AsPC-1 AP IC50. An outline of the steps: as §2

One may read the IC50 as the point on the concentration scale where inhibition reaches its midpoint.

As for `CCn1cc2c(c1-c1cc(C#CCN3CCC(C#N)(CO)CC3)cnc1[C@H](C)OC)CC(C)(C)COC(=O)[C@@H]1CCCN(N1)C(=O)[C@@H](NC(=O)[C@H]1[C@@H]3COC[C@@H]31)Cc1nc(cs1)/C=C/2` (atropisomer, axis not shown; (Ra)) [Compound Z104, (1R,5S,6r)-N-((4^2Z,8^3S,2E,6S)-(Ra)-1^5-(5-(3-(4-cyano-4-(hydroxymethyl)piperidin-1-yl)prop-1-yn-1-yl)-2-((S)-1-methoxyethyl)pyridin-3-yl)-1^1ethyl-12,12-dimethyl-7,9-dioxo-8^1,8^2,8^3,8^4,8^5,8^6-hexahydro-1^1H-10-oxa-4(4,2)-thiazola-8(1,3)-pyridazina-1(3,4)-pyrrolacyclotridecaphan-2-en-6-yl)-3-oxabicyclo[3.1.0]hexane-6-carboxamide], the concentration for half-maximal inhibition (IC50) in the assay with p-ERK [1] is 470 pM; in the assay on p-ERK [2], 170 pM; in the assay on NCI-H441 cells, 140 pM; with AsPC-1 cells, 190 pM.

Take `CCn1cc2c(c1-c1cc(C#CCN3CCS(=O)(=O)CC3)cnc1[C@H](C)OC)CC(C)(C)COC(=O)[C@@H]1CCCN(N1)C(=O)[C@@H](NC(=O)[C@H]1[C@H](C)[C@@H]1C)Cc1nc(cs1)/C=C/2` (atropisomer, axis not shown; (Ra)) [Compound Z118, (1r,2R,3S)-N-((4^2Z,8^3S,2E,6S)-(Ra)-1^5-(5-(3-(1,1-dioxidothiomorpholino)prop-1-yn-1-yl)-2-((S)-1-methoxyethyl)pyridin-3-yl)-1^1-ethyl-12,12-dimethyl-7,9-dioxo-8^1,8^2,8^3,8^4,8^5,8^6-hexahydro-1^1H-10-oxa-4(4,2)-thiazola-8(1,3)-pyridazina-1(3,4)-pyrrolacyclotridecaphan-2-en-6-yl)-2,3-dimethylcyclopropane-1-carboxamide]: the IC50 amounted to 470 pM with p-ERK [1], 200 pM in the assay with p-ERK [2], 280 pM in the assay with NCI-H441 cells and 240 pM in the assay with AsPC-1 cells.

As for `CO[C@@H](C)c1ncc(C#CCN2CCS(=O)(=O)CC2)cc1-c1c2c(cn1C1CCCC1)/C=C/c1csc(n1)C[C@H](NC(=O)[C@H]1[C@H](C)[C@@H]1C)C(=O)N1CCC[C@H](N1)C(=O)OCC(C)(C)C2` (atropisomer, axis not shown; (Ra)) [Compound Z125, (1r,2R,3S)-N-((4^2Z,8^3S,2E,6S)-1^1-cyclopentyl-(Ra)-1^5-(5-(3-(1,1-dioxidothiomorpholino)prop-1-yn-1-yl)-2-((S)-1-methoxyethyl)pyridin-3-yl)-12,12-dimethyl-7,9-dioxo-8^1,8^2,8^3,8^4,8^5,8^6-hexahydro-1^1H-10-oxa-4(4,2)-thiazola-8(1,3)-pyridazina-1(3,4)-pyrrolycyclotridec-2-en-6-yl)-2,3-dimethylcyclopropane-1-carboxamide], the IC50 with p-ERK [1] turned out to be 530 pM; in the assay on p-ERK [2] it was 510 pM; in the assay with NCI-H441 cells it was 360 pM; in the assay on AsPC-1 cells it was 350 pM.

As for `CCn1cc2c(c1-c1cc(C#CCN3CCS(=O)(=O)CC3)cnc1[C@H](C)OC)CC(C)(C)COC(=O)[C@@H]1CCCN(N1)C(=O)[C@@H](NC(=O)[C@H]1[C@@H]3COC[C@@H]31)Cc1nc(cs1)/C=C/2` (atropisomer, axis not shown; (Ra)) [Compound Z130, (1R,5S,6r)-N-((4^2Z,8^3S,2E,6S)-(Ra)-1^5-(5-(3-(1,1-dioxidothiomorpholino)prop-1-yn-1-yl)-2-((S)-1-methoxyethyl)pyridin-3-yl)-1^1-ethyl-12,12-dimethyl-7,9-dioxo-8^1,8^2,8^3,8^4,8^5,8^6-hexahydro-1^1H -10-oxa-4(4,2)-thiazola-8(1,3)-pyridazina-1(3,4)-pyrrolacyclotridecaphan-2-en-6-yl)-3-oxabicyclo[3.1.0]hexane-6-carboxamide], the IC50 in the assay on p-ERK [1] came to 540 pM; in the assay with p-ERK [2], 940 pM; in the assay on NCI-H441 cells, 410 pM; in the assay on AsPC-1 cells it was 360 pM.
